Data taken from PubChem BioAssay (NCI).
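Interpolation was linear, between the two tested concentrations surrounding the appropriate level; five concentrations were tested over 48 hours in 96-well plates. At the GI50, growth is halved. At the TGI there is no net growth.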

Tests used:
Assay in all cases: NCI tumour cell line growth inhibition, 48 h
HT29 colon = test system: HT29 colon
TK-10 renal = test system: TK-10 renal
CAKI-1 renal = test system: CAKI-1 renal
CCRF-CEM leukemia = test system: CCRF-CEM leukemia
NCI-H23 lung = test system: NCI-H23 lung
HCT-15 colon = test system: HCT-15 colon
SF-295 CNS = test system: SF-295 CNS
MDA-MB-435 = test system: MDA-MB-435
ACHN renal = test system: ACHN renal
NCI/ADR-RES ovarian = test system: NCI/ADR-RES ovarian
SK-MEL-28 melanoma = test system: SK-MEL-28 melanoma
NCI-H226 lung = test system: NCI-H226 lung
HS 578T breast = test system: HS 578T breast
UACC-62 melanoma = test system: UACC-62 melanoma
NCI-H522 lung = test system: NCI-H522 lung
RPMI-8226 leukemia = test system: RPMI-8226 leukemia
SNB-75 CNS = test system: SNB-75 CNS
OVCAR-5 ovarian = test system: OVCAR-5 ovarian
M14 melanoma = test system: M14 melanoma
HCC-2998 colon = test system: HCC-2998 colon
MCF7 breast = test system: MCF7 breast
OVCAR-3 ovarian = test system: OVCAR-3 ovarian
COLO 205 colon = test system: COLO 205 colon
SF-539 CNS = test system: SF-539 CNS
SK-MEL-2 melanoma = test system: SK-MEL-2 melanoma
NCI-H460 lung = test system: NCI-H460 lung
OVCAR-4 ovarian = test system: OVCAR-4 ovarian
SF-268 CNS = test system: SF-268 CNS
KM12 colon = test system: KM12 colon
SNB-19 CNS = test system: SNB-19 CNS
MDA-MB-231 breast = test system: MDA-MB-231 breast
SK-OV-3 ovarian = test system: SK-OV-3 ovarian
SN12C renal = test system: SN12C renal
SW-620 colon = test system: SW-620 colon
DU-145 prostate = test system: DU-145 prostate
MOLT-4 leukemia = test system: MOLT-4 leukemia
RXF 393 renal = test system: RXF 393 renal
HOP-62 NSCLC = test system: HOP-62 NSCLC
LOX IMVI melanoma = test system: LOX IMVI melanoma
IGROV1 ovarian = test system: IGROV1 ovarian
BT-549 breast = test system: BT-549 breast
K-562 leukemia = test system: K-562 leukemia
SR leukemia = test system: SR leukemia
UACC-257 melanoma = test system: UACC-257 melanoma
OVCAR-8 ovarian = test system: OVCAR-8 ovarian
PC-3 prostate = test system: PC-3 prostate
T-47D breast = test system: T-47D breast
U251 CNS = test system: U251 CNS
HCT-116 colon = test system: HCT-116 colon
A498 renal = test system: A498 renal
A549 NSCLC = test system: A549 NSCLC
SK-MEL-5 melanoma = test system: SK-MEL-5 melanoma

`Nc1ncc(-c2ccc3ncnc(N4CCc5ccc(Cl)cc54)c3c2)cn1` was tested, and the GI50 (HT29 colon) was 1060 nM, the TGI (HT29 colon) was 82.6 µM and the GI50 (TK-10 renal) was 354 nM. For the same molecule, the TGI (TK-10 renal) was 3.85 µM, the GI50 (CAKI-1 renal) was 1190 nM and the TGI (CAKI-1 renal) was greater than 100 µM. It also gave a GI50 (CCRF-CEM leukemia) of 1020 nM, a TGI (CCRF-CEM leukemia) greater than 100 µM and a GI50 (NCI-H23 lung) of 1900 nM. It also gave a TGI (NCI-H23 lung) greater than 100 µM, a GI50 (HCT-15 colon) of 1330 nM and a TGI (HCT-15 colon) greater than 100 µM. The GI50 (SF-295 CNS) was 1030 nM, the TGI (SF-295 CNS) was 6.89 µM and the GI50 (MDA-MB-435) was 2190 nM. It also gave a TGI (MDA-MB-435) greater than 100 µM, a GI50 (ACHN renal) of 584 nM and a TGI (ACHN renal) greater than 100 µM. For the same molecule, the GI50 (NCI/ADR-RES ovarian) was 1860 nM, the TGI (NCI/ADR-RES ovarian) was greater than 100 µM and the GI50 (SK-MEL-28 melanoma) was 2010 nM. For the same molecule, the TGI (SK-MEL-28 melanoma) was greater than 100 µM, the GI50 (NCI-H226 lung) was 1350 nM and the TGI (NCI-H226 lung) was 27.4 µM. The GI50 (HS 578T breast) was 437 nM, the TGI (HS 578T breast) was 4.39 µM and the GI50 (UACC-62 melanoma) was 1310 nM. The TGI (UACC-62 melanoma) was 5.98 µM, the GI50 (NCI-H522 lung) was 2660 nM and the TGI (NCI-H522 lung) was 15.8 µM. The GI50 (RPMI-8226 leukemia) was 584 nM, the TGI (RPMI-8226 leukemia) was 4.44 µM and the GI50 (SNB-75 CNS) was 418 nM. It also gave a TGI (SNB-75 CNS) of 3.98 µM, a GI50 (OVCAR-5 ovarian) of 532 nM and a TGI (OVCAR-5 ovarian) greater than 100 µM. For the same molecule, the GI50 (M14 melanoma) was 1880 nM, the TGI (M14 melanoma) was greater than 100 µM and the GI50 (HCC-2998 colon) was 1500 nM. For the same molecule, the TGI (HCC-2998 colon) was 87.2 µM, the GI50 (MCF7 breast) was 684 nM and the TGI (MCF7 breast) was 31.7 µM. The GI50 (OVCAR-3 ovarian) was 1880 nM, the TGI (OVCAR-3 ovarian) was greater than 100 µM and the GI50 (COLO 205 colon) was 2010 nM. For the same molecule, the TGI (COLO 205 colon) was 9.53 µM, the GI50 (SF-539 CNS) was 1110 nM and the TGI (SF-539 CNS) was 3.79 µM. The GI50 (SK-MEL-2 melanoma) was 1560 nM, the TGI (SK-MEL-2 melanoma) was 4.53 µM and the GI50 (NCI-H460 lung) was 1460 nM. For the same molecule, the TGI (NCI-H460 lung) was greater than 100 µM, the GI50 (OVCAR-4 ovarian) was 1610 nM and the TGI (OVCAR-4 ovarian) was 24.8 µM. For the same molecule, the GI50 (SF-268 CNS) was 1630 nM, the TGI (SF-268 CNS) was greater than 100 µM and the GI50 (KM12 colon) was 2340 nM. The TGI (KM12 colon) was 97.6 µM, the GI50 (SNB-19 CNS) was 2550 nM and the TGI (SNB-19 CNS) was greater than 100 µM. The GI50 (MDA-MB-231 breast) was 994 nM, the TGI (MDA-MB-231 breast) was greater than 100 µM and the GI50 (SK-OV-3 ovarian) was 1370 nM. For the same molecule, the TGI (SK-OV-3 ovarian) was 7.03 µM, the GI50 (SN12C renal) was 813 nM and the TGI (SN12C renal) was greater than 100 µM. The GI50 (SW-620 colon) was 2830 nM, the TGI (SW-620 colon) was greater than 100 µM and the GI50 (DU-145 prostate) was 971 nM. For the same molecule, the TGI (DU-145 prostate) was greater than 100 µM, the GI50 (MOLT-4 leukemia) was 563 nM and the TGI (MOLT-4 leukemia) was 3.81 µM. The GI50 (RXF 393 renal) was 606 nM, the TGI (RXF 393 renal) was 3000 nM and the GI50 (HOP-62 NSCLC) was 743 nM. For the same molecule, the TGI (HOP-62 NSCLC) was greater than 100 µM, the GI50 (LOX IMVI melanoma) was 870 nM and the TGI (LOX IMVI melanoma) was 23.5 µM. The GI50 (IGROV1 ovarian) was 291 nM, the TGI (IGROV1 ovarian) was 2340 nM and the GI50 (BT-549 breast) was 603 nM. For the same molecule, the TGI (BT-549 breast) was 8.51 µM, the GI50 (K-562 leukemia) was 2220 nM and the TGI (K-562 leukemia) was greater than 100 µM. The GI50 (SR leukemia) was 1040 nM, the TGI (SR leukemia) was 18.1 µM and the GI50 (UACC-257 melanoma) was 2980 nM. The TGI (UACC-257 melanoma) was greater than 100 µM, the GI50 (OVCAR-8 ovarian) was 1840 nM and the TGI (OVCAR-8 ovarian) was greater than 100 µM. For the same molecule, the GI50 (PC-3 prostate) was 739 nM, the TGI (PC-3 prostate) was greater than 100 µM and the GI50 (T-47D breast) was 313 nM. It also gave a TGI (T-47D breast) of 30 µM, a GI50 (U251 CNS) of 2460 nM and a TGI (U251 CNS) greater than 100 µM. For the same molecule, the GI50 (HCT-116 colon) was 1680 nM, the TGI (HCT-116 colon) was 10.8 µM and the GI50 (A498 renal) was 248 nM. It also gave a TGI (A498 renal) of 800 nM, a GI50 (A549 NSCLC) of 1260 nM and a TGI (A549 NSCLC) greater than 100 µM. The GI50 (SK-MEL-5 melanoma) was 1460 nM and the TGI (SK-MEL-5 melanoma) was 4.94 µM.
